Laboratory results: patent US10881642B2, “Autophagy enhancer and use thereof” (Industry-Academic Cooperation Foundation, Yonsei University, priority 2016, dated 2021)

System: HeLa cells
Assay: Autophagic flux in HeLa cells (RFP-LC3/LAMP1, mRFP-GFP-LC3, FYVE-dsRed, immunoblot)
Format: cell-based
Experimental: FIG. 2 indicates the results of the Hela Cells treated with Compound of formula I (hereinafter referred to as MSL) showing the increase of the autophagic flux in the cells treated. FIG. 2A indicates the results of the experiments in which HeLa cells transfected with RFP-LC3 plasmid for 48 hrs were treated with compound MSL of the present disclosure or vehicle control for 1 hr, which were then […] with antibody against LAMP1. The arrows indicate puncta. LC3 or the number of puncta was also indicated as bar graph. FIG. 2B indicates the results of the experiments in which HeLa cells transfected with mRFP-GFP-LC3 plasmid for 48 hrs were treated with compound MSL of the present disclosure or vehicle control for 1 hr, in which autophagosome (yellow puncta) or autophagolysosome (red puncta) were measured using Image J software. The number of puncta was indicated as bar graph. FIG. 2C indicates the results of the experiments in which HeLa cells transfected with FYVE-dsRed plasmid for 48 hrs were treated with compound MSL of the present disclosure or vehicle control for 1 hr, in which the number of FYVE-dsRed vesicles was measured. The measured value were average of the values obtained from at least 3 images. Error bars, S.D. **, P<0.01; ***, P<0.001.
FIG. 10 is the result of the experiments using compound of formula 2 (hereinafter referred to as MSL-7) of the present disclosure as an autophagic enhancer. FIG. 10A is the result of immuneblot using the antibodies indicated using Hela cells treated with MSL or MSL-7. FIG. 10B is the result of measuring the viability of Hela cells treated with vehicle control or various concentration of MSL-7 (50-100 μM) for 48 hrs. FIG. 10C is the result of DAPI stained nuclei of TFEB-GFP HeLa cells which were treated with vehicle control or MSL-7 for 4 hrs. The graph indicates the percentage of TFEB translocated into the nuclei. Error bars, S.D. *, P<0.05; **, P<0.01; ***, P<0.001.
FIG. 12 indicates the improvement of the metabolic profile of HFD-feed mice by MSL-7: (FIG. 12A) Confocal microscopic result of HeLa cells transfected with tandem mRFP-GFP-LC3 and treated with MSL-7 in which red puncta indicates autophagolysosome. (FIG. 12B, 12C) 8 week old male C57BL/6 mice were fed with HFD or normal chow diet (NCD) for 8 weeks, and then 50 mg/kg MSL-7 was administered three times a week for 8 weeks. Non-fasting glucose level (FIG. 12B) and body weight (FIG. 12C) were monitored. (FIG. 12D) IPGTT. (FIG. 12E) AUC curve of (FIG. 12D). (FIG. 12F) ITT. (FIG. 12G) AUC curve of (FIG. 12F).
Screening of autophagy enhancer. […] Luciferase assay. Firefly and Renilla luciferase assays were conducted using the Dual-Luciferase Reporter Assay System (Promega) according to the manufacturer's recommendation. In brief, cells were lysed in 1× lysis buffer and subjected to a single round of freezing/thawing. Firefly luciferase was determined after mixing 5 μl of lysate with 25 μl of Luciferase Assay Reagent II. Renilla luciferase was then determined after further addition of 20 ul of Stop&Glo Reagent. Cell culture and media and drugs treatment. […]

Compound	autophagy-enhancing activity (immunoblot, FIG. 10A)	formation of autophagolysosome (mRFP-GFP-LC3, red puncta)	Recruitment of FYVE-dsRed+ vesicle (1 hr)	LC3+ autophagosome colocalization with lysosomal marker LAMP1 (RFP-LC3 transfected, 1 hr)	number of yellow puncta (early autophagic organelles) and red puncta (autolysosomes) (mRFP-GFP-LC3B probe, 1 hr)
COc1oc(-c2ccccc2Cl)nc1S(=O)(=O)c1ccccc1 [MSL-7, 2-(2-chlorophenyl)-5-methoxy-4-(phenylsulfonyl) oxazole]	definite autophagy-enhancing activity	induced			
CSc1oc(-c2ccccc2)nc1S(=O)(=O)c1ccc(F)cc1 [MSL]			increased	positive for the lysosomal markers LAMP1	increases
